{
  "source": "paper PMC6104039",
  "about": "(Nature Communications, 2018)",
  "key": {"[1]": {"system": "PPAR alpha", "assay": "PMP70 protein expression in liver lysates (PPAR alpha agonism)", "type": "in vivo, mice", "from_the_text": "For PPAR alpha we have examined the protein expression of\nPMP70 (an abundant peroxisomal m embrane protein) in liver lysates, as PPAR alpha is much more\nhighly expressed in liver and we have clear evidence (Supplementary Fig 6) that P053 distributes\ninto liver at levels that are higher that those present in skeletal muscle.\ntreated with a known PPAR alpha agonist WY14643 (WY) vs. vehicle (veh) controls shown on the\nright of the gel as positive controls."}, "[2]": {"system": "gastrocnemius muscle", "assay": "Targeted analysis of ceramide, SM and HexCer in gastrocnemius muscle", "type": "in vivo, mice", "set-up": "HexCer 18:1/22:0 content of gastrocnemius muscle / SM 34:1 content of gastrocnemius muscle / SM 34:2 content of gastrocnemius muscle / SM 36:2 content of gastrocnemius muscle / SM 36:1 content of gastrocnemius muscle / SM 40:1 content of gastrocnemius muscle / SM 42:2 content of gastrocnemius muscle / SM 42:1 content of gastrocnemius muscle / Cer 18:1/16:0 content of gastrocnemius muscle / Cer 18:1/18:0 content of gastrocnemius muscle / Cer 18:2/18:0 content of gastrocnemius muscle / Cer 18:0/18:0 content of gastrocnemius muscle / Cer 18:1/22:0 content of gastrocnemius muscle / Cer 18:1/24:1 content of gastrocnemius muscle / Cer 18:0/24:1 content of gastrocnemius muscle / Cer 18:1/24:0 content of gastrocnemius muscle / HexCer 18:1/16:0 content of gastrocnemius muscle / HexCer 18:1/18:0 content of gastrocnemius muscle / HexCer 18:1/20:0 content of gastrocnemius muscle: unit not given beside the values"}},
  "note": "“And” between values parts separate entries of the source, which are not always exact repeats. Identical values can stand only once.",
  "data": [
    {"smiles": "C[C@@](N)(CO)CCc1ccc(OCc2ccc(Cl)c(Cl)c2)cc1", "note": "[P053, (S)-2-amino-4-(4-(3,4-dichlorobenzyloxy)phenyl)-2-methylbutan-1-ol]", "values": [
      {"measurement": "expression of PMP70", "setting": "[1]", "result": "unaffected"},
      {"measurement": "C18 ceramide, C18 dihydroceramide and 18:2/18:0 ceramide in gastrocnemius muscle", "setting": "[2]; 5 mg/kg daily", "result": "significant reductions"},
      {"measurement": "Cer 18:0/18:0 content of gastrocnemius muscle", "setting": "[2]; Chow + P053, individual mice", "result": "6.716 and 7.477 and 5.961 and 6.052 and 7.077 and 6.063 and 5.232 and 5.747 and 5.304 and 6.401"},
      {"measurement": "Cer 18:0/24:1 content of gastrocnemius muscle", "setting": "[2]; Chow + P053, individual mice", "result": "3.2091 and 2.598 and 3.667 and 1.8279 and 1.954 and 2.772 and 2.055 and 2.027 and 2.139 and 3.699"},
      {"measurement": "Cer 18:1/16:0 content of gastrocnemius muscle", "setting": "[2]; Chow + P053, individual mice", "result": "0.3484 and 0.3091 and 0.3437 and 0.3068 and 0.4605 and 0.637 and 0.2188 and 0.4293 and 0.2277 and 0.4584"},
      {"measurement": "Cer 18:1/18:0 content of gastrocnemius muscle", "setting": "[2]; Chow + P053, individual mice", "result": "20.203 and 22.2043 and 20.4893 and 19.2549 and 21.0178 and 15.4813 and 13.2288 and 14.0008 and 17.6182 and 17.1195"},
      {"measurement": "Cer 18:1/20:0 content of gastrocnemius muscle", "setting": "[2]; Chow + P053, individual mice", "result": "0.4999 and 0.7758 and 0.6909 and 0.4845 and 0.671 and 0.9486 and 0.5576 and 0.508 and 0.7146 and 0.7451"},
      {"measurement": "Cer 18:1/22:0 content of gastrocnemius muscle", "setting": "[2]; Chow + P053, individual mice", "result": "2.697 and 2.247 and 2.924 and 2.061 and 2.474 and 3.27 and 1.828 and 2.047 and 1.902 and 3.1173"},
      {"measurement": "Cer 18:1/24:0 content of gastrocnemius muscle", "setting": "[2]; Chow + P053, individual mice", "result": "7.198 and 5.637 and 7.43 and 4.359 and 4.709 and 6.914 and 4.421 and 4.245 and 5.265 and 6.526"},
      {"measurement": "Cer 18:1/24:1 content of gastrocnemius muscle", "setting": "[2]; Chow + P053, individual mice", "result": "11.8242 and 9.129 and 9.681 and 7.066 and 8.758 and 11.6384 and 7.885 and 7.128 and 7.643 and 10.6448"},
      {"measurement": "Cer 18:2/18:0 content of gastrocnemius muscle", "setting": "[2]; Chow + P053, individual mice", "result": "0.4658 and 0.5512 and 0.4225 and 0.4514 and 0.5661 and 0.3835 and 0.2283 and 0.4455 and 0.4165 and 0.4597"},
      {"measurement": "HexCer 18:1/16:0 content of gastrocnemius muscle", "setting": "[2]; Chow + P053, individual mice", "result": "0.2006 and 0.1094 and 0.05472 and 0.08462 and 0.1035 and 0.3016 and 0.02008 and 0.2899 and 0.1794 and 0.1526"},
      {"measurement": "HexCer 18:1/18:0 content of gastrocnemius muscle", "setting": "[2]; Chow + P053, individual mice", "result": "2.77 and 1.138 and 0.685 and 0.5505 and 1.7658 and 1.01 and 1.02 and 3.397 and 2.789 and 0.3088"},
      {"measurement": "HexCer 18:1/20:0 content of gastrocnemius muscle", "setting": "[2]; Chow + P053, individual mice", "result": "4.98 and 2.2562 and 1.185 and 0.63 and 2.136 and 1.46 and 2.186 and 5.934 and 4.2225 and 0.5191"},
      {"measurement": "HexCer 18:1/22:0 content of gastrocnemius muscle", "setting": "[2]; Chow + P053, individual mice", "result": "28.6994 and 10.5255 and 7.341 and 3.05 and 12.9786 and 10.4072 and 8.903 and 30.0855 and 20.1916 and 3.513"},
      {"measurement": "HexCer 18:1/22:1 content of gastrocnemius muscle", "setting": "[2]; Chow + P053, individual mice", "result": "2.443 and 0.8441 and 0.5964 and 0.2415 and 0.9642 and 0.3777 and 0.6547 and 2.558 and 1.9817 and 0.2068"},
      {"measurement": "HexCer 18:1/24:0 content of gastrocnemius muscle", "setting": "[2]; Chow + P053, individual mice", "result": "131.55 and 47.7053 and 35.5956 and 20.727 and 57.5213 and 45.8559 and 36.9456 and 110.769 and 86.5459 and 16.7978"},
      {"measurement": "HexCer 18:1/24:1 content of gastrocnemius muscle", "setting": "[2]; Chow + P053, individual mice", "result": "55.5818 and 22.7923 and 17.8764 and 8.062 and 22.9046 and 20.0825 and 17.0776 and 61.9168 and 40.6919 and 8.475"},
      {"measurement": "SM 34:1 content of gastrocnemius muscle", "setting": "[2]; Chow + P053, individual mice", "result": "55.2092 and 65.2319 and 37.406 and 53.6606 and 49.036 and 73.0423 and 41.7651 and 81.6186 and 53.5156 and 54.7372"},
      {"measurement": "SM 34:2 content of gastrocnemius muscle", "setting": "[2]; Chow + P053, individual mice", "result": "2.561 and 2.363 and 1.4133 and 1.332 and 1.809 and 2.655 and 1.68 and 2.4957 and 1.926 and 1.425"},
      {"measurement": "SM 36:1 content of gastrocnemius muscle", "setting": "[2]; Chow + P053, individual mice", "result": "242.303 and 230.3 and 206.587 and 243.389 and 210.049 and 199.927 and 174.992 and 270.736 and 215.295 and 156.154"},
      {"measurement": "SM 36:2 content of gastrocnemius muscle", "setting": "[2]; Chow + P053, individual mice", "result": "3.724 and 3.017 and 3.098 and 3.4 and 2.856 and 3.2428 and 2.648 and 4.315 and 4.019 and 3.053"},
      {"measurement": "SM 40:1 content of gastrocnemius muscle", "setting": "[2]; Chow + P053, individual mice", "result": "97.5537 and 51.1596 and 53.7207 and 21.6057 and 37.8369 and 48.3173 and 39.3705 and 88.0525 and 69.3339 and 48.817"},
      {"measurement": "SM 42:1 content of gastrocnemius muscle", "setting": "[2]; Chow + P053, individual mice", "result": "88.2897 and 52.3856 and 29.1894 and 16.6817 and 42.3452 and 43.7529 and 25.0289 and 89.171 and 54.8125 and 29.4411"},
      {"measurement": "SM 42:2 content of gastrocnemius muscle", "setting": "[2]; Chow + P053, individual mice", "result": "288.299 and 175.495 and 168.331 and 87.7791 and 166.49 and 221.175 and 113.727 and 338.716 and 212.277 and 185.512"},
      {"measurement": "Cer 18:0/18:0 content of gastrocnemius muscle", "setting": "[2]; HFD + P053, individual mice", "result": "6.696 (2×) and 6.991 and 7.614 and 9.306 and 10.4442 and 6.363 and 5.154 and 5.258 and 4.509"}
    ]}
  ]
}
